{
  "source": "patent US20250188169A1",
  "about": "“METHOD FOR TREATING CLONAL HEM[…] DISORDERS” (THE CHILDREN'S MEDICAL CENTER CORPORATION, priority 2022, published 2025)",
  "key": {"[1]": {"system": "marrow myelomonocytes, lymphocytes and progenitor/precursors", "experiment": "Marrow cellular composition by flow cytometry", "assay_type": "in vivo, zebrafish", "conditions": "8 months post treatment", "protocol": "FIG. 11 examines the survival curve of the fish in two cohorts. An event was finding the fish dead or moribund after overnight treatment; no fish died during the day or off treatment days or as a consequence of retroorbital bleeding. No statistical difference was found with p values >0.05 by two different tests between the groups. 17 DMSO and 13 DIMC fish were left for final analysis. Additionally, marrow cellular composition was analyzed at 8 months post treatment by flow cytometry."}, "zebrafish": {"system": "zebrafish", "experiment": "Tolerability and survival of treated asxl1-mutant zebrafish", "assay_type": "in vivo", "conditions": "over the three-month treatment period", "protocol": "(§1) Zebrafish were generated with mosaic mutations in asxl1 using the TWISTR method (Avagyan et a1 Science 2021, PMID 34735227). Briefly, they were injected with guide-RNAs targeting asxl1 gene with Cas9 mRNA into 1-cell embryos of zebrafish, and grown to adulthood. At 3 months retroortibital bleeding was performed on the adult zebrafish and measure the size of the mutant clones in the peripheral blood by sequencing the genomic DNA at the targeting locus of asxl1. Zebrafish with at least 1 mutant allele of 5% of greater allele size were chosen for the cohorts, randomly assigned to be treated with either DMSO or NR4A1 inhibitor (DIM-C). The dose of DIM-C was determined in a previously conducted pilot experiment. Zebrafish with mosaic mutations in asxl1 are treated with either DMSO or an NR4A1 inhibitor (DIM-C) and analyzed over a three-month period. Peripheral blood was collected every month to determine the size of the mutant clones over time. […] RO=retro-orbital bleed, RO1=first RO, pre-treatment, RO2 through RO4=monthly RO bleeds following treatment.\nIt was previously shown by early genetic targeting nr4a1 during development prevented clonal growth of mutant cells. […]\nFIG. 11 examines the survival curve of the fish in two cohorts. […] Additionally, marrow cellular composition was analyzed at 8 months post treatment by flow cytometry."}, "asxl1-mutant clones": {"system": "asxl1-mutant clones", "experiment": "asxl1-mutant clonal dynamics in peripheral blood of mosaic asxl1-mutant zebrafish (VAF by sequencing)", "assay_type": "in vivo", "protocol": "as §1\nClonal hematopoiesis. Zebrafish were generated with mosaic mutations in asxl1 using the TWISTR method (Avagyan et a1 Science 2021, PMID 34735227). Briefly, they were injected with guide-RNAs targeting asxl1 gene with Cas9 mRNA into 1-cell embryos of zebrafish, and grown to adulthood. At 3 months retroortibital bleeding was performed on the adult zebrafish and the size of the mutant clones in the peripheral blood was measured by sequencing the genomic DNA at the targeting locus of asxl1. Zebrafish with at least 1 mutant allele of 5% of greater allele size were chosen for the cohorts, randomly assigned to be treated with either DMSO or NR4A1 inhibitor (DIM-C). Zebrafish with mosaic mutations in asxl1 were treated with either DMSO or an NR4A1 inhibitor (DIM-C) and analyzed over a three-month period. Peripheral blood was collected every month to determine the size of the mutant clones over time.\nIt was previously shown by early genetic targeting nr4a1 during development prevented clonal growth of mutant cells. Next, the hypothesis that pharmacologic inhibition of nr4a1 would halt or reduce mutant clonal growth over time was tested (FIG. 1). To test this hypothesis, a cohort of asxl1 mutant zebrafish were generated and screened for the presence of asxl1 mutant clone at at least 5% VAF in peripheral blood. The positively screened mutant fish were then treated either with DMSO or minimally toxic dose of DIM-c (Tocris compound) at 9.5 uM concentration overnight, between 14-16 hours long, 5 days of the week for 6 months. Peripheral blood from both groups was collected by retroorbital bleeding every month for measurement of the mutant clones in the blood by next generation sequencing (FIG. 2). N=are the numbers of fish at the initiation of treatment. A more detailed experimental schema with exact dates in order to calculate exact ages of the fish or post treatment timepoints is shown in FIG. 10."}},
  "note": "“Also recorded” adds a separate entry of the source.",
  "data": [
    {"smiles": "Oc1ccc(C(c2c[nH]c3ccccc23)c2c[nH]c3ccccc23)cc1", "note": "[DIM-C, 1,1-bis(3′-indolyl)-1-(p-hydroxyphenyl)methane]", "values": [
      {"measurement": "marrow cellular composition, difference between treatment groups", "setting": "[1]", "result": "no difference between the treatment groups"},
      {"measurement": "physical abnormalities in treated zebrafish", "setting": "zebrafish", "result": "No physical abnormalities were observed"},
      {"measurement": "change in asxl1 frameshift indel containing clone size compared to 0 (Wilcoxon rank test)", "setting": "asxl1-mutant clones; DIM-C treated zebrafish, three-month period, null hypothesis: no change", "result": "no significant change"},
      {"measurement": "change of asxl1-mutant clones with non-frameshift indels over time", "setting": "asxl1-mutant clones; DIM-C treatment, three-month period, peripheral blood", "result": "similarly unchanged over time; also recorded: did not change significantly over time"},
      {"measurement": "expansion of asxl1-mutant clones with frameshift indels (VAF over time)", "setting": "asxl1-mutant clones; DIM-C vs DMSO, three-month period, monthly retro-orbital bleeds, peripheral blood", "result": "less pronounced and plateaus by 3 months; also recorded: less expansion of asxl1-mutant clones"},
      {"measurement": "asxl1-mutant clonal expansion, clones with frameshift and non-frameshift indels, all zebrafish", "setting": "asxl1-mutant clones; DIM-C, all zebrafish (n=12), three-month period", "result": "significantly abated asxl1-mutant clonal expansion"},
      {"measurement": "change in size of the largest clone over treatment", "setting": "asxl1-mutant clones; DIMC treatment arm, compared to 0 (no change over time), one sample t and Wilcoxon test", "result": "had not changed significantly"},
      {"measurement": "percent change of clone size (VAF at RO4 compared to VAF at RO1), frameshift-indel clones, compared to DMSO", "setting": "asxl1-mutant clones; three-month period, clones with VAF of 5% or greater in at least 1 time point", "result": "significantly less expansion"}
    ]}
  ]
}
